{"source": "paper PMC12486850", "about": "“Dual mechanism of the OXA-23 carbapenemase inhibition by the carbapenem NA-1-157” (Antimicrobial Agents and Chemotherapy, 2025)", "key": {"OXA-23 [1]": {"molecular_target": "T1, OXA-23 (Acinetobacter baumannii, UniProt Q9L4P2)", "T1 construct": "5'-truncated (54 bp) E. coli-optimized blaOXA-23 gene", "T1 sequence (Q9L4P2 19-273)": "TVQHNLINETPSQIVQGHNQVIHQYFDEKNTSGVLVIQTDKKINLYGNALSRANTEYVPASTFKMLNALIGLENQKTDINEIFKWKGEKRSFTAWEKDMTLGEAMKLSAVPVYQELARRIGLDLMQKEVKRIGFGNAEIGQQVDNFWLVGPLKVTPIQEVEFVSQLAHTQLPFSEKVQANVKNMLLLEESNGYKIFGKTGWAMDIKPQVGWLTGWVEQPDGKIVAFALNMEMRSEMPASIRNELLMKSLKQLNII", "assay": "time-resolved crystal structures ([…] min soaks), ESI-LC/MS, nitrocefin competition kinetics", "assay_type": "biochemical"}, "OXA-23 [2]": {"molecular_target": "T1, OXA-23", "assay": "crystal structure of the acyl-enzyme complex ([…] min soak, […] meropenem)", "assay_type": "binding"}}}
{"compound": "C[C@@H](O)[C@H]1C(=O)N2C(C(=O)O)=C(S[C@@H]3CN[C@H](C(=O)N(C)C)C3)C[C@]12C", "note": "[NA-1-157]", "values": [{"measurement": "Ki", "setting": "OXA-23 [1]", "result": "590 ± 20", "unit": "nM"}]}
{"compound": "C[C@@H](O)[C@H]1C(=O)N2C(C(=O)O)=C(S[C@@H]3CN[C@H](C(=O)N(C)C)C3)[C@H](C)[C@H]12", "note": "[meropenem]", "values": [{"measurement": "crystal structure of the acyl-enzyme complex (6 min soak, 20 mM meropenem)", "setting": "OXA-23 [2]", "result": "In the OXA-23–meropenem acyl-enzyme complex, meropenem is covalently attached to the Ser70 side chain"}]}
